Test results reported in patent publication US20240116946A1 (Gilead Sciences, Inc., priority 2022, published 2024).
Read-outs that look alike come from different tables or passages of the source.

Tests used:
[1] = target: recombinant SARS-CoV-2 Main protease (Mpro) (Severe acute respiratory syndrome coronavirus 2 (2019-nCoV) (SARS-CoV-2), UniProt P0DTD1); experiment: Cov Mpro Biochemical IC50 Assay; conditions: read-out: MPro IC50
SARS-CoV-2-NLuc = experiment: microbe, parasite or virus in culture; assay type: cell-based, SARS Coronavirus 2
[2] = recombinant SARS-CoV-2 Mpro 7.5 nM, fluorogenic peptide substrate 40 μM
[3] = Severe acute respiratory syndrome coronavirus, 48 h, read-out: MPro EC50
[4] = recombinant SARS-CoV-2 Mpro, fluorogenic peptide substrate
[5] = Severe acute respiratory syndrome coronavirus, 48 h; read-out: MPro EC50

SMILES	IC50 [1, 2] [µM]	EC50 (SARS-CoV-2-NLuc; [3]) [µM]	IC50 [1, 4] [µM]	EC50 (SARS-CoV-2-NLuc; [5]) [µM]	EC50 (SARS-CoV-2-NLuc; read-out: MPro EC50) [µM]
Cn1ncc2c(-c3cc4[nH]c(=O)n(-c5cncc6cnn(C)c56)c(=O)c4s3)c(Cl)ccc21 [Example 670]	0.146	0.585	–	–	–
COc1ccc(Cl)c(-c2cnc3c(=O)n(-c4cncc5ccccc45)c(=O)[nH]c3c2)c1 [Example 219]	–	–	0.00506	0.181	–
Cn1ccc2cccc(-c3ccc4c(=O)n(-c5cncc6ccccc56)c(=O)[nH]c4c3)c21 [Example 41]	–	–	1.48	3.84	–
CN1C(=O)COc2cc(-c3cccc(Cl)c3-c3ccc4c(=O)n(-c5cncc6ccccc56)c(=O)[nH]c4c3)cnc21 [Example 195]	–	0.00906	0.00882	–	–
COc1cc(-c2cc3[nH]c(=O)n(-c4cncc5cccc(F)c45)c(=O)c3s2)c(Cl)cc1F (single isomer, unassigned) [Example 899, 6-(2-chloro-4-fluoro-5-methoxyphenyl)-3-(5-fluoroisoquinolin-4-yl)thieno[3,2-d]pyrimidine-2,4(1H,3H)-dione]	0.00403	–	–	–	0.00313
COc1cc(-c2cc3[nH]c(=O)n(-c4cncc5nnn(C)c45)c(=O)c3s2)c(Cl)cc1F [Example 749]	0.00735	0.0326	–	–	–
O=c1[nH]c2cc(-c3ccccc3Cl)cnc2c(=O)n1-c1cncc2ccccc12 [Example 30]	–	0.38	0.0176	–	–
Cc1ncc(-c2cccc(Cl)c2-c2ccc3c(=O)n(-c4cncc5ccccc45)c(=O)[nH]c3c2)n1C [Example 352]	–	0.12	0.0418	–	–
COc1cc(-c2cc3c(s2)c(=O)n(-c2cncc4nc(C)sc24)c(=O)n3CCC#N)c(Cl)cc1F [Example 941]	0.00753	0.0401	–	–	–
Cc1ncccc1-c1cc2[nH]c(=O)n(-c3cncc4ccccc34)c(=O)c2s1 [Example 23]	–	0.8	0.258	–	–
COc1cc(-c2cc3c(s2)c(=O)n(-c2cncnc2)c(=O)n3CCC#N)c(Cl)cc1F [Example 983]	0.00605	0.0231	–	–	–
O=c1[nH]c2cc(-c3c(Cl)ccc4c3OCO4)ccc2c(=O)n1-c1cncc2ccccc12 [Example 172]	–	0.0758	0.159	–	–
COc1cc(-c2cc3c(s2)c(=O)n(-c2cncc4ncn(C)c24)c(=O)n3CCC#N)c(C#N)cc1F [Example 845]	0.01	0.388	–	–	–
N#CCCn1c(=O)n(-c2cnccn2)c(=O)c2sc(-c3ccccc3C#N)cc21 [Example 830]	0.35	–	–	> 1	–
Cc1cn(C)nc1-c1cccc(Cl)c1-c1ccc2c(=O)n(-c3cncc4ccccc34)c(=O)[nH]c2c1 [Example 258]	–	0.0759	0.0613	–	–
COc1cnc(Cl)c(-c2cc3[nH]c(=O)n(-c4cncc(C5CC5)c4)c(=O)c3s2)c1 [Example 369]	–	–	0.00923	0.111	–
COc1cc(-c2cc3c(s2)c(=O)n(-c2cncc4cnn(C)c24)c(=O)n3CC2(C#N)CC2)c(Cl)cc1F [Example 643, 1-[[6-(2-chloro-4-fluoro-5-methoxy-phenyl)-3-(1-methylpyrazolo[4,3-c]pyridin-7-yl)-2,4-dioxo-thieno[3,2-d]pyrimidin-1-yl]methyl]cyclopropanecarbonitrile]	< 0.00405	–	–	0.00114	–
O=c1[nH]c2cc(-c3ccc(F)cc3Cl)ccc2c(=O)n1-c1cncc2ccccc12 [Example 183]	–	0.354	0.585	–	–
COc1cc(-c2cc3c(s2)c(=O)n(-c2cncc4nn(C)c(C)c24)c(=O)n3CCC#N)c(Cl)cc1F (single isomer, unassigned) [Example 1042, 3-(6-(2-chloro-4-fluoro-5-methoxyphenyl)-3-(2,3-dimethyl-2H-pyrazolo[3,4-c]pyridin-4-yl)-2,4-dioxo-3,4-dihydrothieno[3,2-d]pyrimidin-1(2H)-yl)propanenitrile]	> 1	–	–	–	> 1
COC(=O)[C@H]1C[C@@H]1c1cncc(-n2c(=O)[nH]c3cc(-c4ccccc4Cl)sc3c2=O)c1C [Example 136]	–	11.1	> 50	–	–
O=c1[nH]c2cc(-c3cccnc3Cl)sc2c(=O)n1-c1cncc2ccccc12 [Example 22]	–	0.12	0.0371	–	–
COc1cc(-c2cc3c(s2)c(=O)n(-c2cncc4cnn(C)c24)c(=O)n3CC(C)(C)C#N)c(Cl)cc1F [Example 697]	0.00901	0.00962	–	–	–
Cc1cc(-c2cc3c(s2)c(=O)n(-c2cncc4ccccc24)c(=O)n3CCC#N)c(C#N)cc1F [Example 823]	0.0163	0.0257	–	–	–
COc1cc2c(=O)n(-c3cncc4ccccc34)c(=O)[nH]c2cc1-c1c(Cl)cccc1OC [Example 77]	–	–	0.131	0.115	–

SMILES	IC50 [1, 2] [µM]	EC50 (SARS-CoV-2-NLuc; [3]) [µM]	IC50 [1, 4] [µM]	EC50 (SARS-CoV-2-NLuc; [5]) [µM]	EC50 (SARS-CoV-2-NLuc; read-out: MPro EC50) [µM]
Cc1ccc2cncc(-n3c(=O)c4sc(-c5ccccc5Cl)cc4n(CCC#N)c3=O)c2n1 [Example 907]	0.00581	0.00697	–	–	–
COc1cc(-c2nc3c(s2)c(=O)n(-c2cncc4ccccc24)c(=O)n3CCC#N)c(Cl)cc1F [Example 903]	0.00852	0.0131	–	–	–
O=c1[nH]c2cc(-c3ccccc3)ccc2c(=O)n1-c1cncc2ccccc12 [Example 25]	–	5.04	1.41	–	–
COc1cc(-c2cc3[nH]c(=O)n(-c4cncc5cnn(C)c45)c(=O)c3s2)c(Cl)cc1F [Example 505, 6-(2-chloro-4-fluoro-5-methoxyphenyl)-3-(1-methyl-1H-pyrazolo[4,3-c]pyridin-7-yl)thieno[3,2-d]pyrimidine-2,4(1H,3H)-dione]	0.00545	0.00997	–	–	–
Cn1ncc2cncc(-n3c(=O)c4sc(-c5ccccc5C#N)cc4n(CCC#N)c3=O)c21 (single isomer, unassigned) [Example 961, 2-(1-(2-cyanoethyl)-3-(1-methyl-1H-pyrazolo[4,3-c]pyridin-7-yl)-2,4-dioxo-1,2,3,4-tetrahydrothieno[3,2-d]pyrimidin-6-yl)benzonitrile]	0.00618	–	–	–	0.0196
O=c1[nH]c2cc(-c3ccccc3Cl)sc2c(=O)n1-c1cncc2ccc(N3CC(O)(C(F)(F)F)C3)cc12 [Example 426]	0.0213	0.0409	–	–	–
Cn1ncc2cncc(-n3c(=O)[nH]c4cc(-c5c(F)ccc6[nH]ncc56)sc4c3=O)c21 [Example 1014, 6-(5-fluoro-1H-indazol-4-yl)-3-(1-methylpyrazolo[4,3-c]pyridin-7-yl)-1H-thieno[3,2-d]pyrimidine-2,4-dione]	> 1	–	–	> 1	–
O=c1[nH]c2cc(-c3ccccc3Cl)sc2c(=O)n1-c1cncc(C2CC2)c1 [Example 137]	–	0.0401	0.015	–	–
COc1cc(-c2cc3c(s2)c(=O)n(-c2cncc4nc(C)n(C)c24)c(=O)n3CCC#N)c(Cl)cc1F [Example 842, 3-(6-(2-chloro-4-fluoro-5-methoxyphenyl)-3-(1,2-dimethyl-1H-imidazo[4,5-c]pyridin-7-yl)-2,4-dioxo-3,4-dihydrothieno[3,2-d]pyrimidin-1(2H)-yl)propanenitrile]	0.00666	0.0275	–	–	–
Cc1ccc(Cl)c(-c2cc3[nH]c(=O)n(-c4cncc5ccccc45)c(=O)c3s2)c1 [Example 338]	–	0.0376	0.0138	–	–
COc1cc(-c2cc3[nH]c(=O)n(-c4cncc5cnn(C)c45)c(=O)c3s2)c(Cl)cc1F (single isomer, unassigned) [Example 640, 6-(2-chloro-4-fluoro-5-methoxy-phenyl)-3-(1-methylpyrazolo[4,3-c]pyridin-7-yl)-1H-thieno[3,2-d]pyrimidine-2,4-dione]	< 0.00426	–	–	–	0.00348
O=c1[nH]c2cc(-c3c(Cl)cccc3-c3cncc(C(F)(F)F)c3)ccc2c(=O)n1-c1cncc2ccccc12 [Example 206]	–	0.0206	0.0424	–	–
O=c1[nH]c2cc(-c3ccccc3Cl)c(OC3CC3)cc2c(=O)n1-c1cncc2ccccc12 [Example 80]	–	0.232	0.768	–	–
COc1cc(-c2cc3c(s2)c(=O)n(-c2cncc4[nH]nc(C)c24)c(=O)n3CCC#N)c(Cl)cc1F (single isomer, unassigned) [Example 959, 3-(6-(2-chloro-4-fluoro-5-methoxyphenyl)-3-(3-methyl-1H-pyrazolo[3,4-c]pyridin-4-yl)-2,4-dioxo-3,4-dihydrothieno[3,2-d]pyrimidin-1(2H)-yl)propanenitrile]	0.00511	–	–	–	0.00586
COc1cc(-c2cc3c(s2)c(=O)n(-c2cncc(F)c2)c(=O)n3CCC#N)c(Cl)cc1F [Example 986]	0.00237	0.00439	–	–	–
Cc1cncc(-n2c(=O)c3sc(-c4ccccc4Cl)cc3n(CCC#N)c2=O)c1 [Example 984]	0.00312	–	–	0.00369	–
Cn1ncc2cncc(-n3c(=O)c4sc(-c5cc(F)c(F)cc5Cl)cc4n(CCC#N)c3=O)c21 (single isomer, unassigned) [Example 1076, 3-[6-(2-chloro-4,5-difluoro-phenyl)-3-(1-methylpyrazolo[4,3-c]pyridin-7-yl)-2,4-dioxo-thieno[3,2-d]pyrimidin-1-yl]propanenitrile]	0.00364	–	–	–	0.0109
Cc1c(F)cncc1-n1c(=O)c2sc(-c3cc(F)c(F)cc3Cl)cc2n(CCC#N)c1=O [Example 850]	0.0267	–	–	0.0542	–
CC(C)Oc1cc(F)ccc1-c1cc2[nH]c(=O)n(-c3cncc4ccccc34)c(=O)c2s1 [Example 14]	–	0.0799	0.132	–	–
O=c1[nH]c2cc(-c3c(O)cccc3Cl)sc2c(=O)n1-c1cncc2ccccc12 [Example 8]	–	0.108	0.0313	–	–
N#Cc1cnccc1-c1cc2[nH]c(=O)n(-c3cncc4ccccc34)c(=O)c2s1 [Example 531]	0.05	0.518	–	–	–
COc1cccc(C#N)c1-c1cc2[nH]c(=O)n(-c3cncc4ccccc34)c(=O)c2s1 [Example 536]	0.0212	0.0464	–	–	–
COc1cc(-c2cc3c(s2)c(=O)n(-c2cncc4nnn(C5CC5)c24)c(=O)n3CCC#N)c(Cl)cc1F [Example 939]	0.011	0.0303	–	–	–
